Source: US5025036A, “Catechol carboxylic acids” (Hoffmann-La Roche Inc., priority 1989, dated 1991)
pIC50: −log10 of the molar value.

Target: T1, Δ^5 -lipoxygenase from rat basophilic leukemia (RBL-1) cells (Rattus norvegicus, UniProt P12527)
T1 construct: The isolated cytosolic fraction was stored in liquid N2 for up to 8 weeks without loss of 5-LO enzyme activity; endogenous in cells; host or cells: RBL-1 cells (ATCC CRL 1378), 113,000×g supernatant (cytosol)
T1 sequence (P12527 1-673): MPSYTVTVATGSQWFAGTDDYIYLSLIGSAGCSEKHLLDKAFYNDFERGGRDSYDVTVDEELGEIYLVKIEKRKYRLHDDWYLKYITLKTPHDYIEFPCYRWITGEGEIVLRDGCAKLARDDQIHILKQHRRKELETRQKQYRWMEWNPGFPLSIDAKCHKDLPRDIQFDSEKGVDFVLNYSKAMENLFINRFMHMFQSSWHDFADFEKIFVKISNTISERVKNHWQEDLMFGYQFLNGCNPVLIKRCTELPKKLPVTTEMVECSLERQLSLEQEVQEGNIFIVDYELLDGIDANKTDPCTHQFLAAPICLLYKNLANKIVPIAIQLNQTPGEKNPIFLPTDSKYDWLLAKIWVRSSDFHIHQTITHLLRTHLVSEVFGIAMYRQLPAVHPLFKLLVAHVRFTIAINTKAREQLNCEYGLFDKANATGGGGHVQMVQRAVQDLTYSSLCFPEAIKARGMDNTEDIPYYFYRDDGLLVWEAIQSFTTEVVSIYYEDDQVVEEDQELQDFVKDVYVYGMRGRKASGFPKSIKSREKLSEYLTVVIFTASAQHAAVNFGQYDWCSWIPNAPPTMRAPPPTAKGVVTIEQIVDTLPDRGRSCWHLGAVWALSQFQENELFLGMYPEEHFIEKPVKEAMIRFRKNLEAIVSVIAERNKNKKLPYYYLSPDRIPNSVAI
Assay: In vitro test for Δ^5-lipoxygenase inhibitors (5-HETE radioimmunoassay)
Format: biochemical
Settings: for pIC50: RBL-1 5-LO, 5-HETE formation, read-out: Inhib. of Δ^5 Lipoxygenase IC50; for inhibition at 1 µM: read-out: Inhib. of Δ^5 Lipoxygenase, % inhibition at 1 μM; for inhibition at 0.1 µM: read-out: Inhib. of Δ^5 Lipoxygenase, % inhibition at 0.1 μM
Protocol: RBL-1 cells (CRL 1378) were obtained from the American Type Culture Collection, Rockville, MD. DMEM and glutamine were purchased from Flow Labs, McLean, Va. FBS (Gibco, Grand Island, N.Y.) was heat-inactivated for 1 hour at 56° C. Reagents for protein determinations were obtained from Biorad, Rockville Center, N.Y. Arachidonic acid (approx. 99%), ATP (disodium salt), BHT, dextran (clinical grade), tetrasodium EDTA, gelatin, gentamycin sulfate solution, reduced glutathione, 1 M HEPES buffer, indomethacin, NaCl, reduced NADPH, Trizma 7.2, and Trizma 8.5 were purchased from Sigma Chemical, St. Louis, Mo. CaCL2 dihydrate, Norit A charcoal, and citric acid monohydrate were obtained from Fisher Scientific, Pittsburgh, Pa. […] A synthetic 5-HETE standard was supplied by Dr. M. Rosenberger, Dept. of Medicinal Chemistry, Hoffmann La-Roche, Nutley, N.J.; [see Corey, E. J., and Hashimoto, S. (1981) Tet. […] Approximately 7-9 days after thawing, RBL-1 cells growing in log phase were seeded at a density of 7500 viable cells/ml in a closed 89-liter spinner flask. […] RBL-1 cells were harvested by centrifugation at 4° C. at 1500×g for 10 minutes and were washed 3 times with ice cold 0.05M tris-hCl, pH 7.2, tetrasodium EDTA (buffer 1). The cells were washed last in 0.05M Tris-HCl containing 14 μM indomethacin, 1 mM glutathione, 1.5 mM NaCl, and 1 mM tetrasodium EDTA (buffer 2), resuspended at a density of 5×108'/ml approximately 10 ml) and disrupted manually at 4° C. using a 40 ml Dounce (type A pestle) homogenizer. After 5 minutes of homogenization, 95% cell lysis was confirmed by phase contrast microscopy. The broken cells were diluted 1:2 with buffer 2 and centrifuged at 12,380×g for 10 minutes at 4° C. to pellet cellular debris and granules. The 12,380×g supernatant was centrifuged at 113,000×g for 60 minutes to pellet microsomes. The high-speed supernatant (5.9±0.48 mg/ml protein) was frozen immediately in 1 ml aliquots using a dry ice/acetone bath. The isolated cytosolic fraction was stored in liquid N2 for up to 8 weeks without loss of 5-LO enzyme activity. Compounds were dissolved at 25 mM concentration in DMSO, then diluted to final concentrations using 95% ethanol. For a typical enzyme assay, the partially purified 5-LO preparation was preincubated with drug or vehicle for 10 minutes at 30° C. The assay tubes were then transferred at a 37° C. water bath where they received arachidonic acid (8.25 μM final concentration) to initiate 5-LO activity. […] The samples were immediately cooled on ice and neutralized by dilution with 0.05M Tris-HCl, pH 8.5, which contained 25 mg/1 BHT. A boiled cytosol control was placed at the end of each assay to emasure non-enzymatic oxidation of arachidonic acid. […] Under the assay conditions described, the 5-LO catalyzed the conversion of arachidonic acid to 5-HPETE which, as a consequence of peroxidase activity, was reduced to 5-HETE. A specific radioimmunoassay was employed to quantitate the amount (pmoles) of 5-HETE formed during the enzyme reaction. To prepare the immunogen, Dr. M. Rosenberger (Dept. of Medicinal Chemistry) converted the racemic 5-HETE lactone (Corey, E. J., and Hashimoto, S. (1981) Tet. Letters, 22, 299-302) to its hydrazine derivative. The hydrazide was conjugated to thiolated Keyhole Limpet Hemocyanin (Young, […]., and Rokach, J. (1982) Prostaglandins 23, 603-613) using N-ethyl-maleimide as previously described for LTB4 by (Young, R., N, Zomboni, R. and Rokach, J. 91983) Prostaglandins, 26, 605-613). New Zealand White rabbits received multiple intradermal injections on their backs with […] conjugate emulsified in complete Freund's adjuvant. A schedule of injections reported by Salmon (Salmon, J. A. (1978) Prostaglandins, 15, 383-397) was followed. After the monthly i.p. booster injections, blood was obtained from the marginal ear vein 5-7 days later and assessed for antibody titer. […]

Row | Compound | pIC50 | other results
1 | CCCc1c(OCCCCCCc2cccc(O)c2O)ccc(C(C)=O)c1O [1-[2-hydroxy-4-[6-(2,3-dihydroxyphenyl)hexyloxy]-3-propylphenyl]ethanone] | 7.52 | –
2 | O=C(O)c1ccc(OCCCCCCc2cccc(O)c2O)cc1O [4-[6-(2,3-Dihydroxyphenyl)hexyloxy]-2-hydroxybenzoic acid] | 6.49 | –
3 | O=C(O)c1ccc(OCCCCCCc2cccc(O)c2O)cc1 [4-[6-(2,3-Dihydroxyphenyl)hexyloxy]benzoic acid] | 6.77 | –
4 | CCCc1c(OCCCCCCc2cccc(O)c2O)ccc(C(=O)OCC)c1O [4-[6-(2,3-Dihydroxyphenyl)hexyloxy]-2-hydroxy-3-propylbenzoic acid ethyl ester] | – | inhibition at 1 µM: 100%
5 | CCCc1c(OCCCCCCCCCCc2cccc(O)c2O)ccc(C(=O)O)c1O [4-[10-(2,3-dihydroxyphenyl)decyloxy]-2-hydroxy-3-propylbenzoic acid] | 7.70 | –
6 | CCCc1c(OCCCCCCc2cccc(O)c2O)ccc(C(=O)O)c1O [4-[6-(2,3-Dihydroxyphenyl)hexyloxy]-2-hydroxy-3-propylbenzoic acid] | 7.70 | –
7 | CCCc1c(OCCCCCCc2ccc(O)c(O)c2)ccc(C(=O)O)c1O [4-[6-(3,4-dihydroxyphenyl)hexyloxy]-2-hydroxy-3-propylbenzoic acid] | 8.30 | –
8 | CCCc1c(OCCCc2ccc(O)c(O)c2)ccc(C(=O)O)c1O [4-[3-(3,4-Dihydroxyphenyl)propoxy]-2-hydroxy-3-propylbenzoic acid] | – | inhibition at 1 µM: 97%
9 | CCCc1c(OCCCCCCCc2cccc(O)c2O)ccc(C(=O)O)c1O [4-[7-(2,3-dihydroxyphenyl)heptyloxy]-2-hydroxy-3-propylbenzoic acid] | 8.30 | –
10 | CCCc1c(OCCCCCc2cccc(O)c2O)ccc(C(=O)O)c1O [4-[5-(2,3-Dihydroxyphenyl)pentyloxy]-2-hydroxy-3-propylbenzoic acid] | 8.22 | –
11 | CCCc1c(OCCCCCCCCc2cccc(O)c2O)ccc(C(=O)O)c1O [4-[8-(2,3-dihydroxyphenyl)octyloxy]-2-hydroxy-3-propylbenzoic acid] | – | inhibition at 0.1 µM: 62%
12 | CCCc1c(OCCCCCCc2ccc(C(C)C)c(O)c2O)ccc(C(=O)O)c1O [4-[6-[2,3-dihydroxy-4-(1-methylethyl)phenyl]hexyloxy]-2-hydroxy-3-propylbenzoic acid] | 7.00 | –
13 | CCCc1c(OCCCCc2cccc(O)c2O)ccc(C(C)=O)c1O [1-[2-Hydroxy-4-[4-(2,3-dihydroxyphenyl)butoxy]-3-propylphenyl]ethanone] | – | inhibition at 0.01 µM (read-out: Inhib. of Δ^5 Lipoxygenase, % inhibition at 0.01 μM): 48%
14 | CCCc1c(OCCCCCCc2ccc(C(C)C)c(O)c2O)ccc(C(C)=O)c1O [1-[2-hydroxy-4 [6-[2,3 dihydroxy-4-(1-methylethyl)phenyl]hexyloxy]-3 propylphenyl]ethanone] | – | inhibition at 0.1 µM: 35%
15 | CCCc1c(O)c(C(=O)O)cc(Cl)c1OCCCCCCc1cccc(O)c1O [5-Chloro-2-hydroxy-4-[6-(2,3-dihydroxyphenyl]hexyloxy]-3-propylbenzoic acid] | – | inhibition at 0.1 µM: 48%
16 | CCCc1c(OCCCCc2cccc(O)c2O)ccc(C(=O)O)c1O [4-[4-(2,3-dihydroxyphenyl)butoxy]-2-hydroxy-3-propylbenzoic acid] | 7.05 | –
